Data set [1] can be described thus: Cytotoxicity on uninfected ex vivo explants. Type of data set: cell-based, mouse. The note with it: mouse, uninfected ex vivo splenic explants (murine splenocytes).
A further data set deals with Human HepG2. Briefly: Cytotoxicity on HepG2 cells. Type of data set: cell-based. To be noted: for SIh Selectivity Index (human HepG2): CC50 HepG2 / EC50 amastigotes; for CC50: read-out: CC50 Human HepG2, CC50 ± SD, 48 h.
A short description of data set [2]: Cytotoxicity on HepG2 cells. Type of data set: cell-based, human. The note with it: human, HepG2 cells (ATCC HB-8065).
In data set [3] the test system is L. infantum promastigotes. Briefly: Promastigote in vitro assay. Type of data set: cell-based. To be noted: Leishmania infantum, read-out: EC50 L. infantum promastigotes.
For the next data set, the system named is Murine Splenocytes. Briefly: Cytotoxicity on uninfected ex vivo explants. Type of data set: cell-based, mouse. To be noted: for SIS Selectivity Index (mouse splenocytes): CC50 non-infected mouse splenocytes / EC50 amastigotes; for CC50: read-out: CC50 Murine Splenocytes, CC50 ± SD, uninfected splenocytes, 48 h.
In another data set the target is Leishmania tubulin (Leishmania infantum, UniProt A0A381MCS3+A4HTR0). Briefly: Tubulin polymerization assay. It is filed as biochemical, L. infantum.
Chain of Leishmania tubulin (A4HTR0 1-443): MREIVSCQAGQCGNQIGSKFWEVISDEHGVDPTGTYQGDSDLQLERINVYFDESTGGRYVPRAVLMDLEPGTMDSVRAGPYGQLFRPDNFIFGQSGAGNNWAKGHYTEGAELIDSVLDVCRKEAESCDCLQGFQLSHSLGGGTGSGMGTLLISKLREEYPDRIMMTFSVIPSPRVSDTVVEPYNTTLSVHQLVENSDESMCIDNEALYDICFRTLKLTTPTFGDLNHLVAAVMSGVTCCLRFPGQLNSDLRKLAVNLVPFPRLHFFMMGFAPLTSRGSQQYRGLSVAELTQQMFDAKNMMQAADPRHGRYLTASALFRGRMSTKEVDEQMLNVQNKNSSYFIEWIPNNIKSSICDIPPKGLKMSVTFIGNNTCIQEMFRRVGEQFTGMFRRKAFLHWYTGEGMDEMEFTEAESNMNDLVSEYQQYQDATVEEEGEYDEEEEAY
Chain of Leishmania tubulin (A0A381MCS3 1-451): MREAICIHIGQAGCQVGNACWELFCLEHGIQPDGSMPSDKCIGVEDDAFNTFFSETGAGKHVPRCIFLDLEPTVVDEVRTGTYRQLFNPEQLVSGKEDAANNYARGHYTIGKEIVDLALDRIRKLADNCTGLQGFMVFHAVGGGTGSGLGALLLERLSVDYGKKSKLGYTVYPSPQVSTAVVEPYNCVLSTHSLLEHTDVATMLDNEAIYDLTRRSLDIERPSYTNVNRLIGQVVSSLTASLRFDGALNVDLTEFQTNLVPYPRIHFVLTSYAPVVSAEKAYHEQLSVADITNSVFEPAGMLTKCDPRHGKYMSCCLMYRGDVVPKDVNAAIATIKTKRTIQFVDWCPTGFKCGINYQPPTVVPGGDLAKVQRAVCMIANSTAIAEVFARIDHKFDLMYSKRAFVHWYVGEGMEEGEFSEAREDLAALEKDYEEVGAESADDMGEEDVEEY

Each structure is given as a SMILES string.

The term CC50 denotes the concentration giving 50% cytotoxicity. Broadly, the EC50 is the midpoint of the concentration-response curve. As for `COc1cc([C@@H]2c3cc4c(cc3[C@@H](O)[C@H]3COC(=O)[C@H]23)OCO4)cc(OC)c1OC` [Compound 2b, epipodophyllotoxin], the CC50 at 48 h was over 100 µM in data set [1] and 30.6 ± 2.1 µM in data set [2]. Also, the “SIh Selectivity Index (human HepG2)” value in the data set with Human HepG2 is recorded as under 0.3. In data set [3], the EC50 is over 100 µM.
Regarding `COC(=O)[C@@H]1C(C=O)=Cc2cc3c(cc2[C@H]1c1cc(OC)c(OC)c(OC)c1)OCO3` [Compound 14, podophyllic aldehyde], the CC50 at 48 h in data set [1] (BALB/c) and in data set [2] was over 100 µM throughout. For the same compound, the “SIS Selectivity Index (mouse splenocytes)” value (from here on “SIS Selectivity Index”) with Murine Splenocytes is recorded as over 10.8. Moreover, in the data set on Human HepG2, the “SIh Selectivity Index (human HepG2)” value is over 10.8. In addition, the EC50 in data set [3] came to 89.5 ± 4.3 µM.
Turning to `COc1cc([C@@H]2c3cc4c(cc3[C@H](O)[C@H]3COC(=O)[C@H]23)OCO4)cc(OC)c1OC` [Compound 2a, podophyllotoxin], the CC50 at 48 h in data set [1] is over 100 µM; in data set [2], 0.7 µM. For the same compound, the “SIS Selectivity Index” value in the data set with Murine Splenocytes is on record as over 7.4. Besides, the “IC50 Leishmania tubulin polymerization inhibition” value on Leishmania tubulin (IC50 ± SD, 1.2 mg/mL tubulin, 37 °C) is “under the μM level”. Further, the “SIh Selectivity Index (human HepG2)” value in the data set with Human HepG2 turned out to be 0.1. For the same compound, the EC50 in data set [3] was over 100 µM.
As to `CCCCCCCCCCCCCCCCOP(=O)([O-])OCC[N+](C)(C)C` [Miltefosine, miltefosine, reference compound], the results for the CC50 at 48 h in data set [1] and in data set [2] were 64.7 ± 7 µM and 50.4 ± 4.3 µM, respectively. In addition, in the data set with Murine Splenocytes, the “SIS Selectivity Index” value is given as 26.9. For the same compound, the “SIh Selectivity Index (human HepG2)” value in the data set with Human HepG2 worked out at 21. Moreover, the EC50 in data set [3] is 5.9 ± 1.4 µM.
In the case of `CC[C@]1(O)C[C@@H]2CN(CCc3c([nH]c4ccccc34)[C@@](C(=O)OC)(c3cc4c(cc3OC)N(C)[C@H]3[C@@](O)(C(=O)OC)[C@H](OC(C)=O)[C@]5(CC)C=CCN6CC[C@]43[C@@H]65)C2)C1` [Vinblastine, reference compound], the “Inhibition of tubulin polymerization” value at Leishmania tubulin (25 μM, positive control) is listed as “inhibits completely”.
As for `COc1cc([C@@H]2c3cc4c(cc3C[C@H]3COC(=O)[C@@H]32)OCO4)cc(OC)c1OC` [Compound 1, deoxypodophyllotoxin], in the data set with Murine Splenocytes, the “SIS Selectivity Index” value is under 1.0 and the CC50 was found to be 98.6 ± 3.1 µM. The CC50 in the data set on Human HepG2 was over 100 µM.
Turning to `COc1cc([C@@H]2c3cc4c(cc3C(=O)[C@H]3COC(=O)[C@H]23)OCO4)cc(OC)c1OC` [Compound 3, podophyllotoxone], in the data set with Murine Splenocytes, the “SIS Selectivity Index” value is recorded as under 0.6 and the CC50 was 60.6 ± 7.7 µM. In the data set with Human HepG2, the “SIh Selectivity Index (human HepG2)” value is on record as under 0.1 and the cytotoxic concentration (CC50) came to 10.3 ± 0.9 µM.

The values above are taken from paper PMC5512185 (International Journal for Parasitology: Drugs and Drug …, 2017).
